Experimental data from patent US6846492B2, “Use of phenylethylamine derivatives for the antimicrobial treatment of surfaces” (Ciba Specialty Chemicals Corporation, priority 2000, dated 2005).

tested on: Candida albicans ATCC 10231 (= CA); assay: MIC determination in microtiter plates, Candida albicans; format: cell-based; conditions: Tables 2a/2b, 48 hours at 37° C., ≦20% growth, optical density 620 nm, some approximate values
Protocol: (§1) Determination of the Minimum Inhibitory Concentration (MIC Value) in Microtiter Plates
(§2) Casein/soybean flour peptone bouillon for the preparation of pre-cultures of the test bacteria and yeast.
(§3) Mycological slant agar for the pre-culture of moulds
(§4) The test substances are pre-dissolved in dimethyl sulfoxide (DMSO) and tested in a dilution series of 1:2.
(§5) Bacteria and yeast are cultured overnight in CASO bouillon, the mould is cultured overnight on mycological slant agar, and washed off with 10 ml of 0.85% sodium chloride solution (+0.1% TritonX-100).
(§6) All the test organisms are adjusted to an organism count of 1−5×10^6 CFU/ml using 0.85% sodium chloride solution.
(§7) The test substances are pre-pipetted into microtiter plates in an amount of 8 μl per well.
(§8) Pre-diluted organism suspensions are diluted 1:100 in CASO bouillon (bacteria and yeast) or Sabouraud 2% glucose bouillon (mould) and are added in an amount of 192 μl per well to the test substances.
(§9) The test batches are incubated for 48 hours at 37° C. (bacteria and yeast) or for 5 days at 28° C. (mould).
(§10) After incubation, the growth is evaluated by reference to the turbidity of the test batches (optical density) at 620 nm in a microplate reader.
(§11) One microtiter plate is used for each test organism and substance concentration. All the substances are tested in duplicate.

SMILES | MIC [ppm] CA
CC(C)Oc1cc(CCN)cc(OC(C)C)c1OC(C)C [Compound 82] | >120 ppm
N#Cc1ccc(COc2cc(CCN)cc(OCc3ccc(C#N)cc3)c2OCc2ccc(C#N)cc2)cc1 [Compound 64] | 60 ppm
NCCc1cc(OC2CCCC2)c(OC2CCCC2)c(OC2CCCC2)c1 [Compound 92] | 60 ppm
COC(=O)c1ccc(COc2cc(CCN)cc(OCc3ccc(C(=O)OC)cc3)c2OCc2ccc(C(=O)OC)cc2)cc1 [Compound 65] | 60 ppm
NCCc1ccc(OCc2ccccc2C(F)(F)F)c(OCc2ccccc2C(F)(F)F)c1 [Compound 8] | 15 ppm
CCOC(=O)CCCOc1ccc(CCN)cc1OCCCC(=O)OCC [Compound 27] | >120 ppm
NCCc1ccc(OCc2ccccc2F)c(OCc2ccccc2F)c1 [Compound 15] | 30 ppm
NCCc1ccc(OC2CCCC2)c(OC2CCCC2)c1 [Compound 41] | 120 ppm

tested on: Staphylococcus hominis DMS 20328 (= SH); assay: MIC determination in microtiter plates, Staphylococcus hominis; format: cell-based; conditions: Tables 2a/2b, 48 hours at 37° C., ≦20% growth, optical density 620 nm, tested at 120, 60, 30, 15, 7.5 and 3.5 ppm, some approximate
Protocol: as §1, §2, §3, §4, §5, §6, §7, §8, §9, §10, §11

SMILES | MIC [ppm] SH
CC(C)Oc1cc(CCN)cc(OC(C)C)c1OC(C)C [Compound 82] | >120 ppm
N#Cc1ccc(COc2cc(CCN)cc(OCc3ccc(C#N)cc3)c2OCc2ccc(C#N)cc2)cc1 [Compound 64] | >120 ppm
NCCc1cc(OC2CCCC2)c(OC2CCCC2)c(OC2CCCC2)c1 [Compound 92] | 15 ppm
COC(=O)c1ccc(COc2cc(CCN)cc(OCc3ccc(C(=O)OC)cc3)c2OCc2ccc(C(=O)OC)cc2)cc1 [Compound 65] | 15 ppm
NCCc1ccc(OCc2ccccc2C(F)(F)F)c(OCc2ccccc2C(F)(F)F)c1 [Compound 8] | 7.5 ppm
CCOC(=O)CCCOc1ccc(CCN)cc1OCCCC(=O)OCC [Compound 27] | >120 ppm
NCCc1ccc(OCc2ccccc2F)c(OCc2ccccc2F)c1 [Compound 15] | 30 ppm
NCCc1ccc(OC2CCCC2)c(OC2CCCC2)c1 [Compound 41] | 120 ppm

tested on: Aspergillus niger ATCC 6275 (= AN); assay: MIC determination in microtiter plates, Aspergillus niger; format: cell-based; conditions: Tables 2a/2b, 5 days at 28° C., ≦20% growth, optical density 620 nm, some approximate values
Protocol: as §1, §2, §3, §4, §5, §6, §7, §8, §9, §10, §11

SMILES | MIC [ppm] AN
CC(C)Oc1cc(CCN)cc(OC(C)C)c1OC(C)C [Compound 82] | >120 ppm
N#Cc1ccc(COc2cc(CCN)cc(OCc3ccc(C#N)cc3)c2OCc2ccc(C#N)cc2)cc1 [Compound 64] | 15 ppm
NCCc1cc(OC2CCCC2)c(OC2CCCC2)c(OC2CCCC2)c1 [Compound 92] | 120 ppm
COC(=O)c1ccc(COc2cc(CCN)cc(OCc3ccc(C(=O)OC)cc3)c2OCc2ccc(C(=O)OC)cc2)cc1 [Compound 65] | >120 ppm
NCCc1ccc(OCc2ccccc2C(F)(F)F)c(OCc2ccccc2C(F)(F)F)c1 [Compound 8] | >120 ppm
CCOC(=O)CCCOc1ccc(CCN)cc1OCCCC(=O)OCC [Compound 27] | >120 ppm
NCCc1ccc(OCc2ccccc2F)c(OCc2ccccc2F)c1 [Compound 15] | >120 ppm
NCCc1ccc(OC2CCCC2)c(OC2CCCC2)c1 [Compound 41] | >120 ppm

tested on: Escherichia coli NCTC 8196 (= EC); assay: MIC determination in microtiter plates, Escherichia coli; format: cell-based; conditions: Tables 2a/2b, 48 hours at 37° C., ≦20% growth, optical density 620 nm, some approximate values
Protocol: as §1, §2, §3, §4, §5, §6, §7, §8, §9, §10, §11

SMILES | MIC [ppm] EC
CC(C)Oc1cc(CCN)cc(OC(C)C)c1OC(C)C [Compound 82] | >120 ppm
N#Cc1ccc(COc2cc(CCN)cc(OCc3ccc(C#N)cc3)c2OCc2ccc(C#N)cc2)cc1 [Compound 64] | >120 ppm
NCCc1cc(OC2CCCC2)c(OC2CCCC2)c(OC2CCCC2)c1 [Compound 92] | 15 ppm
COC(=O)c1ccc(COc2cc(CCN)cc(OCc3ccc(C(=O)OC)cc3)c2OCc2ccc(C(=O)OC)cc2)cc1 [Compound 65] | >120 ppm
NCCc1ccc(OCc2ccccc2C(F)(F)F)c(OCc2ccccc2C(F)(F)F)c1 [Compound 8] | 7.5 ppm
CCOC(=O)CCCOc1ccc(CCN)cc1OCCCC(=O)OCC [Compound 27] | >120 ppm
NCCc1ccc(OCc2ccccc2F)c(OCc2ccccc2F)c1 [Compound 15] | 30 ppm
NCCc1ccc(OC2CCCC2)c(OC2CCCC2)c1 [Compound 41] | 120 ppm

tested on: Pseudomonas aeruginosa CIP A-22 (= PA); assay: MIC determination in microtiter plates, Pseudomonas aeruginosa; format: cell-based; conditions: Tables 2a/2b, 48 hours at 37° C., ≦20% growth, optical density 620 nm, some approximate values
Protocol: as §1, §2, §3, §4, §5, §6, §7, §8, §9, §10, §11

SMILES | MIC [ppm] PA
CC(C)Oc1cc(CCN)cc(OC(C)C)c1OC(C)C [Compound 82] | >120 ppm
N#Cc1ccc(COc2cc(CCN)cc(OCc3ccc(C#N)cc3)c2OCc2ccc(C#N)cc2)cc1 [Compound 64] | >120 ppm
NCCc1cc(OC2CCCC2)c(OC2CCCC2)c(OC2CCCC2)c1 [Compound 92] | >120 ppm
COC(=O)c1ccc(COc2cc(CCN)cc(OCc3ccc(C(=O)OC)cc3)c2OCc2ccc(C(=O)OC)cc2)cc1 [Compound 65] | >120 ppm
NCCc1ccc(OCc2ccccc2C(F)(F)F)c(OCc2ccccc2C(F)(F)F)c1 [Compound 8] | >120 ppm
CCOC(=O)CCCOc1ccc(CCN)cc1OCCCC(=O)OCC [Compound 27] | >120 ppm
NCCc1ccc(OCc2ccccc2F)c(OCc2ccccc2F)c1 [Compound 15] | 120 ppm
NCCc1ccc(OC2CCCC2)c(OC2CCCC2)c1 [Compound 41] | >120 ppm
